Legend:
Type in all cases: cell-based
MOLM-13 cells = assay: Cell viability assay (CELLTITER-GLO), MOLM-13 cells; settings: Table 2, compound at 10 μM, 3 days; for viability at 10 µM: Homo sapiens, MOLM-13, 72 h, read-out: Effect on MOLM-13 cell viability (% DMSO)
Method in brief: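 Viability, as % of DMSO control, was read by CellTiter-Glo luminescence after a 3-day compound exposure (single dose of 10 μM or 1 μM) at 37 °C. Cells plated at 4,000/well in RPMI 1640 with 10% FBS. Results reported as categories A <10%, B 10–<25%, C 25–<50%, D ≥50%.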

H358 cells = assay: Cell viability assay (CELLTITER-GLO), H358 cells; settings: Table 4; 3 days
Method in brief: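 Luminescent ATP read-out (CellTiter-Glo) after 3-day incubation at 37 °C of H358 cells plated at 4,000/well in RPMI 1640 with 10% FBS. Values are either IC50 bins (A ≤1 μM through D >10 μM) or % of DMSO viability at 10 μM or 1 μM, bins A <10% through D ≥50%.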

H23 cells = assay: Cell viability assay (CELLTITER-GLO), H23 cells; settings: Table 4; 3 days
Method in brief: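 Luminescent CellTiter-Glo readout after 3-day compound treatment (37° C, 5% CO2) of H23 cells plated at 4,000 cells/well in RPMI 1640 plus 10% FBS, DMSO as control. IC50 values given as categorical ranges.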

Row | Inhibition of H358 cells, IC50 (class) (H358 cells) | Structure (SMILES) | Effect on MOLM-13 cell viability (% DMSO) (MOLM-13 cells) | Inhibition of H23 cells, IC50 (class) (H23 cells) | viability at 10 µM (MOLM-13 cells) [%]
1 | A′ | C=C(Cl)C(=O)N1CCN(c2ncnc3c(F)c(-c4c(F)cccc4OCCC4CCC(CCN5CCC(c6cc(F)cc7c6CN(C6CCC(=O)NC6=O)C7=O)CC5)CC4)c(Cl)cc23)CC1 (stereo not drawn) [Compound 116, 3-(4-(1-(2-(4-(2-(2-(6-Chloro-4-(4-(2-chloroacryloyl)piperazin-1-yl)-8-fluoroquinazolin-7-yl)-3-fluorophenoxy)ethyl)cyclohexyl)ethyl)piperidin-4-yl)-6-fluoro-1-oxoisoindolin-2-yl)piperidine-2,6-dione] | A (“A” represents a % viability value of less than 10%) | A′ | –
2 | A′ | C=C(Cl)C(=O)N1CCN(c2ncnc3c(F)c(-c4c(F)cccc4OC[C@H]4CC[C@H](CN5CCC(c6cc(F)cc7c6CN(C6CCC(=O)NC6=O)C7=O)CC5)CC4)c(Cl)cc23)CC1 (stereo partly drawn) [Compound 117, 3-(4-(1-(((1r,4r)-4-((2-(6-Chloro-4-(4-(2-chloroacryloyl)piperazin-1-yl)-8-fluoro-quinazolin-7-yl)-3-fluorophenoxy)methyl)cyclohexyl)methyl)piperidin-4-yl)-6-fluoro-1-oxoisoindolin-2-yl)piperidine-2,6-dione] | – | A′ | < 10
3 | A′ | C=C(Cl)C(=O)N1CCN(c2ncnc3c(F)c(-c4c(F)cccc4OCCC4CCC(CN5CCC(c6cc(F)cc7c6CN(C6CCC(=O)NC6=O)C7=O)CC5)CC4)c(Cl)cc23)CC1 (stereo not drawn) [Compound 118, 3-(4-(1-((4-(2-(2-(6-Chloro-4-(4-(2-chloroacryloyl)piperazin-1-yl)-8-fluoroquinazolin-7-yl)-3-fluorophenoxy)ethyl)cyclohexyl)methyl)piperidin-4-yl)-6-fluoro-1-oxoisoindolin-2-yl)piperidine-2,6-dione] | – | A′ | < 10
4 | B′ | C=C(Cl)C(=O)N1CCN(c2ncnc3c(F)c(-c4c(F)cccc4OCCCCCCCN4CCCC(c5cc6c(cc5F)C(=O)N(C5CCC(=O)NC5=O)C6)C4)c(Cl)cc23)CC1 (stereo not drawn) [Compound 119, 3-(5-(1-(7-(2-(6-Chloro-4-(4-(2-chloroacryloyl)piperazin-1-yl)-8-fluoroquinazolin-7-yl)-3-fluorophenoxy)heptyl)piperidin-3-yl)-6-fluoro-1-oxoisoindolin-2-yl)piperidine-2,6-dione] | – | A′ | < 10
5 | B′ | C=C(Cl)C(=O)N1CCN(c2ncnc3c(F)c(-c4c(F)cccc4OCCN4CCC(CCN5CCC(c6cc(F)cc7c6CN(C6CCC(=O)NC6=O)C7=O)CC5)CC4)c(Cl)cc23)CC1 (stereo not drawn) [Compound 120, 3-(4-(1-(2-(1-(2-(2-(6-Chloro-4-(4-(2-chloroacryloyl)piperazin-1-yl)-8-fluoroquinazolin-7-yl)-3-fluorophenoxy)ethyl)piperidin-4-yl)ethyl)piperidin-4-yl)-6-fluoro-1-oxoisoindolin-2-yl)piperidine-2,6-dione] | – | B′ | < 10
6 | B′ | C=C(Cl)C(=O)N1CCN(c2ncnc3c(F)c(-c4c(F)cccc4OCCCN4CCC(c5cc(F)cc6c5CN(C5CCC(=O)NC5=O)C6=O)CC4)c(Cl)cc23)CC1 (stereo not drawn) [Compound 121, 3-(4-(1-(3-(2-(6-Chloro-4-(4-(2-chloroacryloyl)piperazin-1-yl)-8-fluoroquinazolin-7-yl)-3-fluorophenoxy)propyl)piperidin-4-yl)-6-fluoro-1-oxoisoindolin-2-yl)piperidine-2,6-dione] | – | B′ | < 10
7 | A′ | C=C(Cl)C(=O)N1CCN(c2nc(=O)n(-c3c(C)ccnc3C(C)C)c3nc(-c4c(F)cccc4OCCCCCCCN4CCC(c5cc(F)cc6c5CN(C5CCC(=O)NC5=O)C6=O)CC4)c(F)cc23)[C@@H](C)C1 (stereo partly drawn) [Compound 122, 3-(4-(1-(7-(2-(4-((S)-4-(2-Chloroacryloyl)-2-methylpiperazin-1-yl)-6-fluoro-1-(2-isopropyl-4-methylpyridin-3-yl)-2-oxo-1,2-dihydropyrido[2,3-d]pyrimidin-7-yl)-3-fluorophenoxy)heptyl)piperidin-4-yl)-6-fluoro-1-oxoisoindolin-2-yl)piperidine-2,6-dione] | – | A′ | < 10
8 | A′ | C=C(Cl)C(=O)N1CCN(c2ncnc3c(F)c(-c4c(F)cccc4OCCCCCCCN4CCC(c5cc6c(cc5F)C(=O)N(C5CCC(=O)NC5=O)C6)CC4)c(Cl)cc23)C[C@H]1CC#N (stereo partly drawn) [Compound 123, 2-((2R)-4-(6-Chloro-7-(2-((7-(4-(2-(2,6-dioxopiperidin-3-yl)-6-fluoro-1-oxoisoindolin-5-yl)piperidin-1-yl)heptyl)oxy)-6-fluorophenyl)-8-fluoroquinazolin-4-yl)-1-(2-chloroacryloyl)-piperazin-2-yl)acetonitrile] | – | A′ | < 10
9 | A′ | C=CC(=O)N1CCN(c2nc(=O)n(-c3c(C)ccnc3C(C)C)c3nc(-c4c(F)cccc4OCCCCCCCN4CCC(c5cc(F)cc6c5CN(C5CCC(=O)NC5=O)C6=O)CC4)c(F)cc23)[C@@H](C)C1 (stereo partly drawn) [Compound 124, 3-(4-(1-(7-(2-(4-((S)-4-Acryloyl-2-methylpiperazin-1-yl)-6-fluoro-1-(2-isopropyl-4-methylpyridin-3-yl)-2-oxo-1,2-dihydropyrido[2,3-d]pyrimidin-7-yl)-3-fluorophenoxy)heptyl)-piperidin-4-yl)-6-fluoro-1-oxoisoindolin-2-yl)piperidine-2,6-dione] | – | B′ | < 10
10 | B′ | C=C(Cl)C(=O)N1C[C@@H]2C(=O)N(CCCCCCCN3CCC(c4cc(F)cc5c4CN(C4CCC(=O)NC4=O)C5=O)CC3)c3cnc4c(F)c(-c5c(O)cccc5F)c(Cl)cc4c3N2C[C@H]1C (stereo partly drawn) [Compound 125, 3-(4-(1-(7-((2R,4aR)-11-Chloro-3-(2-chloroacryloyl)-9-fluoro-10-(2-fluoro-6-hydroxyphenyl)-2-methyl-5-oxo-1,2,3,4,4a,5-hexahydro-6H-pyrazino[1′,2′:4,5]pyrazino[2,3-c]quinolin-6-yl)heptyl)piperidin-4-yl)-6-fluoro-1-oxoisoindolin-2-yl)piperidine-2,6-dione] | – | B′ | < 10
11 | B′ | C=C(Cl)C(=O)N1CCN(c2nc(=O)n(-c3ccc(CCCCCCCN4CCC(c5cc(F)cc6c5CN(C5CCC(=O)NC5=O)C6=O)CC4)cc3C(C)C)c3nc(-c4c(O)cccc4F)c(F)cc23)[C@@H](C)C1 (stereo partly drawn) [Compound 126, 3-(4-(1-(7-(4-(4-((S)-4-(2-Chloroacryloyl)-2-methylpiperazin-1-yl)-6-fluoro-7-(2-fluoro-6-hydroxyphenyl)-2-oxopyrido[2,3-d]pyrimidin-1(2H)-yl)-3-isopropylphenyl)heptyl)piperidin-4-yl)-6-fluoro-1-oxoisoindolin-2-yl)piperidine-2,6-dione] | – | B′ | < 10
12 | A′ | C=C(Cl)C(=O)N1CCN(c2ncnc3c(F)c(-c4c(F)cccc4OC[C@H]4CC[C@@H](CN5CCC(c6cc(F)cc7c6CN(C6CCC(=O)NC6=O)C7=O)CC5)CC4)c(Cl)cc23)CC1 (stereo partly drawn) [Compound 127, 3-(4-(1-(((1s,4s)-4-((2-(6-Chloro-4-(4-(2-chloroacryloyl)piperazin-1-yl)-8-fluoro-quinazolin-7-yl)-3-fluorophenoxy)methyl)cyclohexyl)methyl)piperidin-4-yl)-6-fluoro-1-oxoisoindolin-2-yl)piperidine-2,6-dione] | – | A′ | < 10
13 | A′ | C=C(Cl)C(=O)N1CCN(c2nc(OC[C@@H]3CCCN3C)nc3c(F)c(-c4c(F)cccc4OCCCCCCCN4CCC(c5cc(F)cc6c5CN(C5CCC(=O)NC5=O)C6=O)CC4)c(Cl)cc23)C[C@H]1CC#N (stereo partly drawn) [Compound 128, 2-((2R)-4-(6-Chloro-7-(2-((7-(4-(2-(2,6-dioxopiperidin-3-yl)-6-fluoro-1-oxoisoindolin-4-yl)piperidin-1-yl)heptyl)oxy)-6-fluorophenyl)-8-fluoro-2-(((S)-1-methylpyrrolidin-2-yl)methoxy)quinazolin-4-yl)-1-(2-chloroacryloyl)piperazin-2-yl)acetonitrile] | – | A′ | < 10
14 | A′ | C=C(Cl)C(=O)N1CCN(c2ncnc3c(F)c(-c4c(F)cccc4OCCC4CCC(CCN5CCC(c6cc(F)cc7c6CN(C6CCC(=O)NC6=O)C7=O)CC5)CC4)c(Cl)cc23)C[C@H]1CC#N (stereo partly drawn) [Compound 129, 2-((2R)-4-(6-Chloro-7-(2-(2-(4-(2-(4-(2-(2,6-dioxopiperidin-3-yl)-6-fluoro-1-oxoisoindolin-4-yl)piperidin-1-yl)ethyl)cyclohexyl)ethoxy)-6-fluorophenyl)-8-fluoroquinazolin-4-yl)-1-(2-chloroacryloyl)piperazin-2-yl)acetonitrile] | – | B′ | < 10
